Legend:
Type in all cases: functional
Streptococcus mutans = assay: Antibacterial activity against Streptococcus mutans ATCC25175 assessed as inhibition of bacterial growth by broth microdilution method
[1] = system: Staphylococcus epidermidis; assay: Antibacterial activity against Staphylococcus epidermidis ATCC14990 assessed as inhibition of bacterial growth by broth microdilution method
Moraxella catarrhalis = assay: Antibacterial activity against Moraxella catarrhalis ATCC25238 assessed as inhibition of bacterial growth by broth microdilution method
Staphylococcus aureus = assay: Antibacterial activity against Staphylococcus aureus ATCC12600 assessed as inhibition of bacterial growth by broth microdilution method

Measured: MIC

CCCCCCCc1cc(O)c(CCCCCC)c(=O)o1 [PSEUDOPYRONINES B]
2.1 µg/mL: Streptococcus mutans | [1] | Moraxella catarrhalis | Staphylococcus aureus
